According to publication PMC7862302, “Self-assembling thermostable chimeras as new platform for arsenic biosensing” (Scientific Reports, 2021):

Tests used:
[1] = molecular target: T1, Vmh2-ArsC; format: binding, Thermus thermophilus; settings: chimera immobilised on gold; 50 mM Tris-HCl pH 7.5, 60 °C, 1 h incubation; detection in 1 M HCl; read-out: KAsIII (converted)
T1 construct: single-chain fusion: Vmh2 of Pleurotus ostreatus (N-terminal), 15-residue flexible linker, TtArsC, thrombin site LVPRGS, C-terminal His-tag; with Hydrophobin Vmh2 (Pleurotus ostreatus)

[2] = molecular target: T2, ArsC-Vmh2; format: binding, Thermus thermophilus; settings: chimera immobilised on gold; 50 mM Tris-HCl pH 7.5, 60 °C, 1 h incubation; detection in 1 M HCl; read-out: KAsIII (converted)
T2 construct: single-chain fusion: TtArsC (N-terminal), 15-residue flexible linker, Vmh2 of Pleurotus ostreatus, thrombin site LVPRGS, C-terminal His-tag; with Hydrophobin Vmh2 (Pleurotus ostreatus)

For `O=[As]O` [As(III)], which Kd [1] is on record?
Its Kd is 833 µM.

And the Kd [2]?
Its Kd is 1540 µM.
